Laboratory results as given in patent US6130238A, “3-(cyclohexanoheteroarylidenyl)-2-indolinone protein tyrosine kinase inhibitors” (Sugen, Inc., priority 1998, dated 2000).

Experiments:
FLK-1R = molecular target: T1, FLK-1R (Mus musculus, UniProt P35918); experiment: FLK-1 receptor kinase activity, cellular ELISA (NIH3T3 C7#3 cells, VEGF stimulated); assay type: cell-based
T1 construct: expressed in transfected cells; host or cells: NIH3T3 C7#3 cells

PDGFR = experiment: PDGF-R ELISA (U1242 cells); assay type: cell-based
Description: (§1) IC50 refers to the amount (in micromoles, μM) of compound required to achieve 50% inhibition of the activity of the particular kinase being tested as compared to the activity of an untreated control.
(§2) The cellular/catalytic assays described herein are performed in an ELISA format. The general procedure is a follows: a compound is introduced to cells expressing the test kinase, either naturally or recombinantly, for some period of time after which, if the test kinase is a receptor, a ligand known to activate the receptor's activity is added. The cells are lysed and the lysate is transferred to the wells of an ELISA plate previously coated with a specific antibody recognizing the substrate of the enzymatic phosphorylation reaction. Non-substrate components of the cell lysate are washed away and the amount of phosphorylation on the substrate is detected with an antibody specifically recognizing phosphotyrosine compared with control cells that were not contacted with a test compound.
All cell culture media, glutamine, and fetal bovine serum can be purchased from Gibco Life Technologies (Grand Island, NY) unless otherwise specified. All cells are grown in a humid atmosphere of 90-95% air and 5-10% CO2 at 37° C. All cell lines are routinely subcultured twice a week and are negative for mycoplasma as determined by the Mycotect method (Gibco). […]

EGFR = molecular target: T2, EGFR (Homo sapiens, UniProt P00533); experiment: EGF Receptor ELISA (NIH 3T3/C7 cells); assay type: cell-based
T2 construct: expressed in transfected cells; host or cells: NIH 3T3/C7 cell line
Description: as §1, §2
EGF Receptor kinase activity in cells genetically engineered to express human EGF-R can be measured as described below:
1. […]
12. The maximal phosphotyrosine signal is determined by subtracting the value of the negative controls from the positive controls. The percent inhibition of phosphotyrosine content for extract-containing wells is then calculated, after subtraction of the negative controls.

SRC = molecular target: T3, SRC (Gallus gallus, UniProt P00523); experiment: Biochemical src assay--ELISA
T3 construct: made in house; host or cells: Schizosaccharomyces pombe SP200, pRSP expression plasmid; yeast from Courtneidge Laboratory (Sugen)
Text: as §1
g. Biochemical src assay--ELISA
This assay is used to determine src protein kinase activity measuring phosphorylation of a biotinylated peptide as the readout.
h. Anti-src (327) mab: Schizosaccharomyces Pombe is used to express recombinant Src (Superti-Furga, et al., EMBO J., 12:2625-2634; Superti-Furga, et al., […]., 14:600-605). S. Pombe strain SP200 (h-s leul.32 ura4 ade210) is grown as described and transformations are pRSP expression plasmids are done by the lithium acetate method (Superti-Furga, supra). Cells are grown in the presence of 1 μM thiamine to repress expression from the nmtl promoter or in the absence of thiamine to induce expression.
a. Preparation of src coated ELISA plate.
(§3) c. Kinase assay procedure.
2. Add 0.08 ml Kinase Reaction Mixture per well (containing 10 μl of 10× Kinase Buffer and 10 μM (final concentration) biotin-EEEYEEYEEEYEEEYEEEY per well diluted in water.
(§4) 3. Add 10 μl of compound diluted in water containing 10% DMSO and pre-incubate for 15 minutes at room temperature.
4. Start kinase reaction by adding 10 μl/well of 0.05 mM ATP in water (5 μM ATP final).
5. Shake ELISA plate for 15 min. at room temperature.
10. […]

LCK = molecular target: T4, LCK (Homo sapiens, UniProt P06239); experiment: Biochemical lck Assay--ELISA
T4 construct: made in house; host or cells: Schizosaccharomyces pombe SP200, pRSP expression plasmid
Text: as §1
h. Biochemical lck Assay--ELISA
This assay is used to determine lck protein kinase activities measuring phosphorylation of GST-.zeta. as the readout.
a. Yeast transformed with lck. Schizosaccharomyces Pombe is used to express recombinant Lck (Superti-Furga, et al., EMBO J, 12:2625-2634; Superti-Furga, et al., Nature Biotech., 14:600-605). S. Pombe strain SP200 (h-s leul.32 ura4 ade210) is grown as described and transformations with pRSP expression plasmids are done by the lithium acetate method (Superti-Furga, supra). Cells are grown in the presence of 1 μM thiamine […].
a. Preparation of Lck coated ELISA plate.
as §3
2. Add 0.08 ml Kinase Reaction Mixture per well (containing 10 μl of 10× Kinase Buffer and 2 μg GST-.zeta. per well diluted with water).
as §4
4. Start kinase reaction by adding 10 μl/well of 0.1 mM ATP in water (10 μM ATP final).
5. Shake ELISA plate for 60 min. at room temperature.
14. Develop with Turbo TMB.

FAK = FAK (Homo sapiens, UniProt Q05397); experiment: FAK kinase inhibition; assay type: biochemical
Text: as §1

HUV-EC-C cells [1] = experiment: HUV-EC-C Assay, VEGF (3H-thymidine incorporation); assay type: cell-based, human; conditions: read-out: HUV-EC-C (ATCC) VEGF
Text: as §1
(§5) The cellular/biologic assays described herein measure the amount of DNA made in response to activation of a test kinase, which is a general measure of a proliferative response. The general procedure for this assay is as follows: a compound is introduced to cells expressing the test kinase, either naturally or recombinantly, for some period of time after which, if the test kinase is a receptor, a ligand known to activate the receptor's activity is added. After incubation at least overnight, a DNA labeling reagent such as Bromodeoxy-uridine (BrdU) or 3H-thymidine is added. The amount of labeled DNA is detected with either an anti-BrdU antibody or by measuring radioactivity and is compared to control cells not contacted with a test compound.
(§6) The following protocol may also be used to measure a compound's activity against PDGF-R, FGF-R, VEGF, aFGF or Flk-1/KDR, all of which are naturally expressed by HUV-EC cells.
1. […]

HUV-EC-C cells [2] = experiment: HUV-EC-C Assay, aFGF (3H-thymidine incorporation); assay type: cell-based, human; conditions: read-out: HUV-EC-C (ATCC) aFGF
Text: as §1, §5, §6
1. […]

T1 sequence (P35918 20-1345): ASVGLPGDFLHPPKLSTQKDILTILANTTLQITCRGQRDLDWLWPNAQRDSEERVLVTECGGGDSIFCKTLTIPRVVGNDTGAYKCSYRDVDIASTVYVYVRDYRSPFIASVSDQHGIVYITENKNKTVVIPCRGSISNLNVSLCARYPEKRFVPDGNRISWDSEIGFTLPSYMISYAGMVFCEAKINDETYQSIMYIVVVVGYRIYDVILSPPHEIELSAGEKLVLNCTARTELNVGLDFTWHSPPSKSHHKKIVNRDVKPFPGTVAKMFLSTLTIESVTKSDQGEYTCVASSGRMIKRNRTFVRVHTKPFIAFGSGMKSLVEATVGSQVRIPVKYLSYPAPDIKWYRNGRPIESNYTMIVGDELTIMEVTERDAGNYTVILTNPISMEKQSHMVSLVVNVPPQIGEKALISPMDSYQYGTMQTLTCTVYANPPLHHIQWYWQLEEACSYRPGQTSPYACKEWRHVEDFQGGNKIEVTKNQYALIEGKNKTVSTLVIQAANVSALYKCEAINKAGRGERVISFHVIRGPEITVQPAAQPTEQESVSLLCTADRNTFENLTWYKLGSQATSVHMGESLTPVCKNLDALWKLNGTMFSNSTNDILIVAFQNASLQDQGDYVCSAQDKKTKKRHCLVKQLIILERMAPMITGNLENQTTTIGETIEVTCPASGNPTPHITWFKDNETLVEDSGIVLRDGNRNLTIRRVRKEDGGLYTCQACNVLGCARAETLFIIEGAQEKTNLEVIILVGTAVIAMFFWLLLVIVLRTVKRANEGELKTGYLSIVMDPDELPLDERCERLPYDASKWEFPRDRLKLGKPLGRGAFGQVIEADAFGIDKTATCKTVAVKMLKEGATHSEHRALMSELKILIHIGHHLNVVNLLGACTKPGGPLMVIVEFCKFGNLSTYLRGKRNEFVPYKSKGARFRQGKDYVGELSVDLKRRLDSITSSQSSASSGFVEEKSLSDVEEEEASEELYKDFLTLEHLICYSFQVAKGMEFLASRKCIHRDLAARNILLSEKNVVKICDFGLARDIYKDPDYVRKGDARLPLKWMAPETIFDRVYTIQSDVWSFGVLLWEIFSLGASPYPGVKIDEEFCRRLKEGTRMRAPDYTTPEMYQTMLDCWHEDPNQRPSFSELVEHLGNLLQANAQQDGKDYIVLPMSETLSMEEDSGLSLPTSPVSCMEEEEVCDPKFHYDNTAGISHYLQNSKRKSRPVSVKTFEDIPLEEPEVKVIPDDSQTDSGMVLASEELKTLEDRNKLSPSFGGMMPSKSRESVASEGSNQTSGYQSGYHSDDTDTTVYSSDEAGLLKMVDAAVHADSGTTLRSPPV
T2 sequence (P00533 25-1210): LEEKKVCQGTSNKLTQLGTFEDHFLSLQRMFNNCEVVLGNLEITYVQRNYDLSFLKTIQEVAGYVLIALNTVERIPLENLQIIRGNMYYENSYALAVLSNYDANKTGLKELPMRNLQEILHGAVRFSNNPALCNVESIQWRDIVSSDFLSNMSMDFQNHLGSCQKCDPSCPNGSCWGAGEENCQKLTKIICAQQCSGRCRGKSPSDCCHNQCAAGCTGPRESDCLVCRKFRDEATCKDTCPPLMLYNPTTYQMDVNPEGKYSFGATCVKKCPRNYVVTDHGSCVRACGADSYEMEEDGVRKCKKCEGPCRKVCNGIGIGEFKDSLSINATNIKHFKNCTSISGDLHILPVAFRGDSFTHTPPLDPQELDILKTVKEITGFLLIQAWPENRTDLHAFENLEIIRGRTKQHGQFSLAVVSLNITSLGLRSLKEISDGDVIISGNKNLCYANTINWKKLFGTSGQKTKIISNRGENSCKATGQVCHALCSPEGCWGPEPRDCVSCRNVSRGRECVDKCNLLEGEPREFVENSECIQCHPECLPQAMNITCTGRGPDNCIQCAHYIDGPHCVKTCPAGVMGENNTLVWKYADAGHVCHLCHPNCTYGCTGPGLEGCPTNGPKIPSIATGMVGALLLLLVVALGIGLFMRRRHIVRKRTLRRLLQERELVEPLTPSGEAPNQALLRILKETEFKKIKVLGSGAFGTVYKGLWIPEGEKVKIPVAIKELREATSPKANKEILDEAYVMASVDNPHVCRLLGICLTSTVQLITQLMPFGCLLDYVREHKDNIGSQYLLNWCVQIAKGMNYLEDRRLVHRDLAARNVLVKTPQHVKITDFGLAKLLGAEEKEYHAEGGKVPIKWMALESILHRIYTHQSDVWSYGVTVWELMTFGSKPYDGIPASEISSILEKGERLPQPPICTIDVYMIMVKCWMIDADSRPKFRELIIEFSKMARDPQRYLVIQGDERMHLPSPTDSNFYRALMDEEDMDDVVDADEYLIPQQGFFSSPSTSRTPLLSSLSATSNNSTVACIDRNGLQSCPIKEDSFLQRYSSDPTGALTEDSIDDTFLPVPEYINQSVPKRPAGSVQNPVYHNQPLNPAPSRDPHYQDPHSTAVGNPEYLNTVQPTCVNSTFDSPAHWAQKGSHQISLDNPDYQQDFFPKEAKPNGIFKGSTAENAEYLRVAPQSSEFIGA
T4 sequence (P06239 whole entry, species assumed): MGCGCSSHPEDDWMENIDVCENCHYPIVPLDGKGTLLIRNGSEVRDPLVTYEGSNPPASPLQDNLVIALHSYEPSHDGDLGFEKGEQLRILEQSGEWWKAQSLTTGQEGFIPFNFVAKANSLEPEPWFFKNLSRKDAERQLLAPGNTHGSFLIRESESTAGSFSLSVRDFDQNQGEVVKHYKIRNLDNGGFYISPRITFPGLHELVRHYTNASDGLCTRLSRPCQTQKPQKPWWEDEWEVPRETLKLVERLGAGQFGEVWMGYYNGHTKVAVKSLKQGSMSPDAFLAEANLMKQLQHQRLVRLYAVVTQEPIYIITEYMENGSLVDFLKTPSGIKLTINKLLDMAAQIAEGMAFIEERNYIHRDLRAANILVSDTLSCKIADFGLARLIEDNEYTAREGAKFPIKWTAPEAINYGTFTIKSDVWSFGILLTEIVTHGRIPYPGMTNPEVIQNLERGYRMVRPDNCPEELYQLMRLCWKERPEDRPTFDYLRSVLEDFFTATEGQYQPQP
Chain of FAK (Q05397 whole entry, species assumed): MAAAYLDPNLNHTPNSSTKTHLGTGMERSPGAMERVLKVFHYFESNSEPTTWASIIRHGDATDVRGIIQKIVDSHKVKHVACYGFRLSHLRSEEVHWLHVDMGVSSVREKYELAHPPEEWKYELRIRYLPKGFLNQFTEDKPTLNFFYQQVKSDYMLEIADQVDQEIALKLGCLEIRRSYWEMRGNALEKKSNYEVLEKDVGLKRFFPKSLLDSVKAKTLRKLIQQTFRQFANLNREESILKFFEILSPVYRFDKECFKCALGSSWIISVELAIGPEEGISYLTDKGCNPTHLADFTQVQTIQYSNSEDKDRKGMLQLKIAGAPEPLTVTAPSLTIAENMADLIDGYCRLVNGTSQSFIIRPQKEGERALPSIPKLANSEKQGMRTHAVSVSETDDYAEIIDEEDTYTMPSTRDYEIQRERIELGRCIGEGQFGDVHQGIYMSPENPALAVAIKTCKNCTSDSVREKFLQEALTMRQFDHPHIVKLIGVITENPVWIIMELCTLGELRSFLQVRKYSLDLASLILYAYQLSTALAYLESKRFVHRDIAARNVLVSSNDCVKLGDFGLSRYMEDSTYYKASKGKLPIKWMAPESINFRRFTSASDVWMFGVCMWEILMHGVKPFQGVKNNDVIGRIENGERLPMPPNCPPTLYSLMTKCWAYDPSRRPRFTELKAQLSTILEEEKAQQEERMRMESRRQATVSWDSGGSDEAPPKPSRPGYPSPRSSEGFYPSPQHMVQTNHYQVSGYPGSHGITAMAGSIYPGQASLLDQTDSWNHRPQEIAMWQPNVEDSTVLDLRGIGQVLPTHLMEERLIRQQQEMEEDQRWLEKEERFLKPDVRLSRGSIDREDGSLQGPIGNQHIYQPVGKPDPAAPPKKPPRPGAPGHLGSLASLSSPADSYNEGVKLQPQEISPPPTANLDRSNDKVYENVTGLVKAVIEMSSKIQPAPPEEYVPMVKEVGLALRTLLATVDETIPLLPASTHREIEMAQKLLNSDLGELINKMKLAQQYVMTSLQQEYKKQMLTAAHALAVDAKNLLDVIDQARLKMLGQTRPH

| IC50 (FLK-1R) [nM] | IC50 (PDGFR) [nM] | IC50 (EGFR) [nM] | IC50 (SRC) [nM] | IC50 (LCK) [nM] | IC50 (FAK) [nM] | IC50 (HUV-EC-C cells [1]; Homo sapiens) [nM] | IC50 (HUV-EC-C cells [1]) [nM] | IC50 (HUV-EC-C cells [2]; Homo sapiens) [nM] | IC50 (HUV-EC-C cells [2]) [nM] | Compound |
| --- | --- | --- | --- | --- | --- | --- | --- | --- | --- | --- |
| > 100000 | > 100000 | > 100000 | 100 | 500 | > 10000 |  |  |  |  | CN(C)S(=O)(=O)c1ccc2c(c1)C(=CC1=CC3=C(CCCC3)C1)C(=O)N2 [3-(4,5,6,7-tetrahydroinden-2-methyldenyl)-5-[N,N-dimethylaminosulfonyl]2-indolinone] |
| > 100000 | 1000 | > 100000 | 800 | 700 | > 10000 | 650 | 1070 | 2400 | 3300 | NS(=O)(=O)c1ccc2c(c1)C(=CC1=CC3=C(CCCC3)C1)C(=O)N2 [3-(4,5,6,7-tetrahydroinden-2-methylidenyl)-5-[aminosulfonyl]-2-indolinone] |
